Assay results from ChEMBL document CHEMBL1148519, “Antitumor activity of tetrahydroisoquinoline analogues 3-epi-jorumycin and 3-epi-renieramycin G” (2006).

What was measured:
A549 = experiment: Antiproliferative activity against human A549 cell line; type: functional
HCT-116 = experiment: Antiproliferative activity against human HCT116 cell line; type: functional

GI50 (A549)	GI50 (HCT-116)	SMILES
4.64 µM	0.61 µM	COC1=C(C)C(=O)C2=C(C1=O)[C@@H]1[C@H]3CC4=C(C(=O)C(OC)=C(C)C4=O)[C@H](COC(C)=O)N3[C@@H](O)[C@H](C2)N1C
0.0192 µM	0.0019 µM	COC1=C(C)C(=O)C2=C(C1=O)[C@@H]1[C@@H]3CC4=C(C(=O)C(OC)=C(C)C4=O)[C@H](COC(C)=O)N3[C@@H](O)[C@H](C2)N1C
10.1 µM	1.4 µM	C/C=C(/C)C(=O)OC[C@H]1C2=C(C[C@@H]3[C@H]4C5=C(C[C@@H](C(=O)N31)N4C)C(=O)C(C)=C(OC)C5=O)C(=O)C(C)=C(OC)C2=O [3-EPI-RENIERAMYCIN G]
12.9 µM	3.87 µM	C/C=C(/C)C(=O)OC[C@H]1C2=C(C[C@H]3[C@H]4C5=C(C[C@@H](C(=O)N13)N4C)C(=O)C(C)=C(OC)C5=O)C(=O)C(C)=C(OC)C2=O [(-)-RENIERAMYCIN G]
